From US9656995B2, “Triazine derivative” (Carna Biosciences, Inc., priority 2013, dated 2017)
“Also recorded” adds a separate entry of the source.

Columns and labels:
[1] = system: BCR signal in the Ramos cells; test: Inhibition test on the change of Ramos intracellular calcium ion (anti-IgM BCR stimulation); type: cell-based; details: 0.003-1 μM, anti-IgM 2.0 μg/mL (FIG. 1)
Method: Inhibition Test on the Change of Ramos Intracellular Calcium Ion
The intracellular BTK inhibition by the compounds of the invention was verified by measuring the effects of the compounds of the invention on “anti-IgM antibody BCR stimulation-induced intracellular calcium influx”.
(Addition of Cell Suspension and Calcium Indicator)
One day before measurement, the Ramos cells were cultured after suspended again at a cell density of 1.0×10^6 cells/mL in a fresh growth medium (growth medium as used in Test Example 2), and the cells were recovered next day by centrifugation and washed with RPMI-1640 medium supplemented with 5% penicillin-streptomycin (Nacalai Tesque, Inc.) (Medium 1). These cells were suspended again at a cell density of 2.0×10^6 cells/mL in RPMI-1640 medium supplemented with 1% Ultra Low IgG FBS (GIBCO, #16250) and 5% penicillin-streptomycin (Nacalai Tesque, Inc.) (Medium 2), and thereafter each 100 μL of the cell suspension was added to each well of a poly lysine-coated microplate (BD BioCoat™, #356692), centrifuged (700 rpm, 3 minutes) and then incubated for 1 hour in a 5% CO2 incubator at 37° C. […]
Concentration of the Ramos intracellular calcium ion was measured as a fluorescent intensity of the calcium indicator Fluo-8NW using a microplate reader (SynergyH1) (Ex/Em=490/525 nm). […]

[2] = system: passive cutaneous anaphylaxis reaction (PCA reaction); test: Passive cutaneous anaphylaxis reaction in mouse; type: in vivo; details: ICR mouse, oral, 3.0 mg/mL at 10 mL/kg, vs solvent group (FIG. 2)
Excerpt: Test of Passive Cutaneous Anaphylaxis Reaction in Mouse
Since BTK plays an important role in FcεRI signal transmission in a mast cell, it was investigated whether a mast cell-involving immediate allergic reaction, namely, passive cutaneous anaphylaxis reaction (PCA reaction), which is an immediate allergic reaction involving mast cell, was inhibited by the administration of the compound.
(Preparation of Test Compound Solution)
DMSO, polyethylene glycol 400 (PEG#400, Nacalai Tesque, Inc. #28215-95), and 30% (w/v) hydroxypropyl-β-cyclodextrin aqueous solution (HP-β-CD, Sigma Corporation, #332607-500) were successively added to the test compound in this order, and mixed thoroughly to prepare a test compound solution (solvent composition: 5% solution of test compound in DMSO, 30% PEG#400, 65% HP-β-CD [30% (w/v) aqueous solution]). In the solvent control group, a DMSO solution was used instead of the solution of the test compound in DMSO.
An anti DNP-IgE monoclonal antibody (50 μg/mL, Santa Cruz Biotechnology, Inc., #sc-69695) was intradermally administered to both auricles in an ICR mouse under systemic anesthesia (10 μL/site). […] The absorbance of the resultant filtrate at 620 nm was measured, and used as an index of the dye leakage level. […]

[3] = system: collagen-induced arthritis; test: Rat collagen-induced arthritis model; type: in vivo; details: Lewis rat, 30 and 60 mg/kg orally twice a day
Method: Effect in Rat Collagen-Induced Arthritis Model
Incomplete Freund's Adjuvant (Sigma-Aldrich, #F5506) and Bovine Type II Collagen, 4 mg/mL Solution (Sichuan University, Lot.08H0497) were mixed in a 1:1 ratio to form an emulsion. Three groups of Lewis rat (10 animals/group) (5-6 week old, female) received 0.5 mL per animal of the emulsion which was given in small portions on Day 0 and Day 7 by intradermal injection at 3 sites, one site at the base of the tail (0.1 mL), and the rest of two sites (0.2 mL/site) were on the back of the rat near to the base of the tail, thereby accomplishing the immunization. The solvent or the test compound solution was given twice a day orally every day from Day 0 to Day 20 (test compound doses in the respective groups: 0 mg/kg, 30 mg/kg, 60 mg/kg). The treatment solution was prepared with the similar solvent in the similar manner as Test Example 4.
After the boost on Day 7, the state of the arthritis onset in each extremity was scored visually twice in a week according to the criteria shown in Table 8. The scores of all four extremities were summed up on each rat basis, and the mean value of 10 animals in each group was represented as an arthritis score (normal “0” up to maximum “16”).

[4] = system: collagen-induced arthritis; test: Mouse collagen-induced arthritis model; type: in vivo; details: DBA/1J mice, 30 and 60 mg/kg orally twice a day
Method: Effect in Mouse Collagen-Induced Arthritis Model
Incomplete Freund's Adjuvant (Chondrex, Inc., #7002) supplemented with M. Tuberculosis H37 Ra, Desiccated (Beckton Dickinson and Company, #231141) at 2.5 mg/mL and Bovine Type II Collagen, 2 mg/mL Solution (Chondrex, Inc., #20022) were mixed in a 1:1 ratio to form an emulsion.
Three groups of DBA/1J mice (10 animals/group) (6-week old, male) received 0.1 mL per animal of the emulsion which was given in small portions on Day 0 and Day 21 by intradermal injection at the base of the tail, thereby accomplishing the immunization. The solvent or the test compound solution was given twice a day orally every day from Day 18 to Day 36 (test compound doses in the respective groups: 0 mg/kg, 30 mg/kg, 60 mg/kg). The treatment solution was prepared with the similar solvent in the similar manner as Test Example 4.
After the boost on Day 21, the state of the arthritis onset in each extremity was scored visually once in 2 or 3 days according to the criteria shown in Table 7. The scores of all four extremities were summed up on each mouse basis, and the mean value of 10 animals in each group was represented as an arthritis score (normal “0” up to maximum “16”).

[5] = target: T1, BTK (Homo sapiens, UniProt Q06187); test: Intracellular BTK auto-phosphorylation activity inhibition test in Ramos cells; type: cell-based; details: test compound 0.3 μM, anti-IgM stimulation, pY223, read-out: BTK Phosphorylation inhibiting activity
T1 construct: endogenous in cells; host or cells: Ramos cells (2G6.4C10, ATCC No. CRL-1923)
Method: Intracellular BTK Auto-Phosphorylation Activity Inhibition Test
(Culture of Cells to be Used)
Ramos cells (2G6.4C10, ATCC No. CRL-1923) were cultured in a T75 flask containing RPMI-1640 medium (GIBCO, #A10491-01) supplemented with 10% FBS (AusGene) and 5% penicillin-streptomycin (Nacalai Tesque, Inc.) (hereinafter referred to as growth medium) in a 5% CO2 incubator.
(Addition of the Compound to be Tested)
The cultured Ramos cells were diluted to a cell density of 7.5×10^6 cells/mL with a serum-free RPMI-1640 (hereinafter referred to as medium) and kept at 37° C. for 45 minutes. The cell suspension was dispensed in 1 mL aliquots into 2.0 mL tubes. […]
To the pellets obtained by recovering the cells via centrifugation, 100 μL of a lysis buffer [RIPA Buffer(×1) (Cell Signaling Technology, Inc.) supplemented with 1% Phosphatase inhibitor Cacktail 3 (Sigma Corporation, No. P0044), 1% Phosphatase inhibitor Cacktail (Nacalai Tesque, Inc., No. 07575) and 1 mM phenylmethylsulfonyl fluoride (PMSF)] was added and stirred gently and then allowed to stand for 10 minutes. The supernatant was recovered by centrifugation (15,000 rpm, 15 minutes) and the protein level was quantified. […]

T1 sequence (Q06187 whole entry): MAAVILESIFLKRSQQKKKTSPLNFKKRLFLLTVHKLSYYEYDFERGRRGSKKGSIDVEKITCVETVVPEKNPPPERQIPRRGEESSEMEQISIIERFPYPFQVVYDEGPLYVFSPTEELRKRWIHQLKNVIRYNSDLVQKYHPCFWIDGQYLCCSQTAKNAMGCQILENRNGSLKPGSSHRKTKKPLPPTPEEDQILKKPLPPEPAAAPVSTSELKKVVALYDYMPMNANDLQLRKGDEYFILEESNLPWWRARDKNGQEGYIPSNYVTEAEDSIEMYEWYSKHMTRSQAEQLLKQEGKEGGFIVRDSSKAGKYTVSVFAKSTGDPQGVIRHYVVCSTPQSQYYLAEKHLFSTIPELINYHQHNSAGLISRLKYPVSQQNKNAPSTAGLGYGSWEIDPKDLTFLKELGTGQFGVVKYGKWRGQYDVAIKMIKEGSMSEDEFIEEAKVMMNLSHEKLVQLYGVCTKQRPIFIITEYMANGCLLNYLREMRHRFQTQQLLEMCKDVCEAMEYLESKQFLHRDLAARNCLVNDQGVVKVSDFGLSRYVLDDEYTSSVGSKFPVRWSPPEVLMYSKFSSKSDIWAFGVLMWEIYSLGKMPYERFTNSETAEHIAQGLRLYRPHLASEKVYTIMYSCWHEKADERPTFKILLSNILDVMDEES

SMILES | Inhibition of change of intracellular calcium ion induced by BCR-stimulation [1] | Inhibition of leakage of the dye into the auricles (PCA reaction) [2] | Toxic signs such as weight loss ([3]; Day 0 to Day 20) | Inhibition of onset of arthritis (arthritis score) ([3]; Day 0 to Day 20 (FIG. 4)) | Toxic signs such as weight loss ([4]; Day 18 to Day 36) | Inhibition of onset of arthritis (arthritis score) ([4]; Day 18 to Day 36 (FIG. 3)) | inhibition at 0.3 µM [5] [%]
Cn1cc(Nc2nc(N)nc(-c3cccc(-n4ccc5cc(C6CC6)cc(F)c5c4=O)c3CO)n2)cn1 [Example 1, 2-(3-{4-Amino-6-[(1-methyl-1H-pyrazol-4-yl)amino]-1,3,5-triazin-2-yl}-2-(hydroxymethyl)phenyl)-6-cyclopropyl-8-fluoroisoquinolin-1(2H)-one] | in a concentration-dependent manner from a low concentration; also recorded: inhibits the BCR signal in the Ramos cells in a concentration dependent manner | inhibited the leakage of the dye in blood into the auricles significantly | able to circumvent any toxic signs such as weight loss | inhibited the onset of the arthritis in a dose dependent manner | able to circumvent any toxic signs such as weight loss | inhibited the onset of the arthritis in a dose dependent manner | ≥ 70
Cn1cc(Nc2nc(N)nc(-c3cccc(-n4ccc5cc(C6CC6)cc(F)c5c4=O)c3CO)n2)cc1C#N [Example 2, 4-({4-Amino-6-[3-(6-cyclopropyl-8-fluoro-1-oxoisoquinolin-2(1H)-yl)-2-(hydroxymethyl)phenyl]-1,3,5-triazin-2-yl}amino)-1-methyl-1H-pyrrole-2-carbonitrile] | – | – | – | – | – | – | ≥ 70
